Tests used:
[1] = molecular target: T1, Recombinant human PI3Kγ (full length human PI3K p110γ) (Homo sapiens, UniProt P48736); assay: Kinase assay of PI3Kγ (solid-phase lipid kinase assay); format: biochemical; settings: Table 1, isozyme not given; read-out: in vitro
T1 construct: full length human PI3K p110γ fused with a His6-tag at the C-terminus; His6 (C); purchased ALEXIS BIOCHEMICALS #201-055-C010; host or cells: S. frugiperda 9 insect cells
Description: [Determination of IC50 Values of Compounds in Kinase Assay of PI3Kγ]
Chemicals and Assay Materials
LABORATORIES (Toronto, Canada). Recombinant human PI3Kγ (full length human PI3K p110γ fused with a His6-tag at the C-terminus expressed in S. frugiperda 9 insect cells) was obtained from ALEXIS BIOCHEMICALS (#201-055-C010; San Diego, Calif.). […] BIOTECH (Buckinghamshire, UK) and ROCHE DIAGNOSTICS (Mannheim, Germany), respectively. Scintillation cocktails and MicroScint PS™ were purchased from PACKARD (Meriden, Conn.). Maxisorp™ plates were purchased from NALGE NUNC INTERNATIONAL K.K. (Tokyo, Japan). All other chemicals not further specified were from WAKO PURE CHEMICALS (Osaka, Japan).
Solid-Phase Lipid Kinase Assay
The plates were subsequently air-dried by incubation for at least 2 hours in a fume hood. The reaction was set up by mixing 25 μl/well of assay buffer 2× (100 mM MOPSO/NaOH, 0.2 M NaCl, pH 7.0, 8 mM MgCl2, 2 mg/ml BSA (fatty acid-free)) and 50 ng/well PI3Kγ in the lipid pre-coated plate and 10× test compounds were added in 2% DMSO. The reaction was started by adding 20 μl/well of ATP mix (final 10 μM ATP; 0.05 μCi/well [γ^33P]ATP). After incubation at RT for 2 hours, the reaction was terminated by adding 50 μl/well stop solution (50 mM EDTA, pH 8.0). The plate was then washed twice with Tris-buffered saline (TBS, pH 7.4). MicroScint PS™ (PACKARD) scintillation mix was added at 100 μl/well, and radioactivity was counted by using a TopCount™ (PACKARD) scintillation counter.
The inhibition percent at each concentration of compound was calculated, and IC50 values were determined from the inhibition of curve.

T1 sequence (P48736 whole entry, the tested form may be a part): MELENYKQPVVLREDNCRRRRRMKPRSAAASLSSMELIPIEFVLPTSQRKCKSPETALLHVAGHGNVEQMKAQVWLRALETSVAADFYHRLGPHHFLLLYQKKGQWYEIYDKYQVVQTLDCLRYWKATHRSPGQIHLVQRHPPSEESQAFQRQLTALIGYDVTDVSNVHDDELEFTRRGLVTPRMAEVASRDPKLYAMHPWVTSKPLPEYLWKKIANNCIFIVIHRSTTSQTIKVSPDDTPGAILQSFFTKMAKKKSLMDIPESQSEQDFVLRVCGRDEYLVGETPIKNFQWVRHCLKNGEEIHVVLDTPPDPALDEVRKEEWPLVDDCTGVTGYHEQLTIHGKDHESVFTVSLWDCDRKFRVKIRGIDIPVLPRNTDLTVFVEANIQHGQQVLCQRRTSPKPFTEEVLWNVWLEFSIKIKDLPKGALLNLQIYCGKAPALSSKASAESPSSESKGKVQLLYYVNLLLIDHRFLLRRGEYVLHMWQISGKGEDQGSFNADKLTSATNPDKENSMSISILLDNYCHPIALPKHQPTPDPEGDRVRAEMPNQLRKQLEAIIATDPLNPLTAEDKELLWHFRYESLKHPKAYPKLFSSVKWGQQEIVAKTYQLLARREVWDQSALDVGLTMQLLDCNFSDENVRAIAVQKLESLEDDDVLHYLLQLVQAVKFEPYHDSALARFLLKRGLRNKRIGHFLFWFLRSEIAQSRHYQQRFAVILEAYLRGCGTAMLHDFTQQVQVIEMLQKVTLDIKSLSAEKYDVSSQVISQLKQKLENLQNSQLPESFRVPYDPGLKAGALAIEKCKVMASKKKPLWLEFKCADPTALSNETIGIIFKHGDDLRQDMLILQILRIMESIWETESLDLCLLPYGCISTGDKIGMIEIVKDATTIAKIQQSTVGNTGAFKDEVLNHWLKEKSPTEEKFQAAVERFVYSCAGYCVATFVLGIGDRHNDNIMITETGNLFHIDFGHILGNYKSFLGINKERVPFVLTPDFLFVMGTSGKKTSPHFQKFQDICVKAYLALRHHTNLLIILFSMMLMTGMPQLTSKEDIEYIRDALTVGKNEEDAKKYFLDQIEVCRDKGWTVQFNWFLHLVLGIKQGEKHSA

Compound	IC50 [1]	melting point
Cl.O/C(=C\C1=Nc2cc(C(F)(F)F)ccc2C2=NCCN12)c1cccnc1 [Example 1-122]	100 to 500 nM	321 °C
O/C(=C\C1=Nc2ccc(O)cc2C2=NCCN12)c1cccnc1 [Example 1-124]	100 to 500 nM	302 to 303 °C
Cl.O/C(=C\C1=Nc2ccc(O)cc2C2=NCCN12)c1cccnc1 [Example 1-125]	< 100 nM	> 300 °C
COc1ccc2c(c1)C1=NCCN1C(/C=C(\O)c1cccnc1)=N2 [Example 1-126]	100 to 500 nM	199 °C
Cl.NCC(=O)Oc1ccc2c(c1)C1=NCCN1C(/C=C(\O)c1cccnc1)=N2 [Example 1-128]	< 100 nM	> 300 °C
Cl.O/C(=C\C1=Nc2ccc(Br)cc2C2=NCCN12)c1cccnc1 [Example 1-129]	100 to 500 nM	> 300 °C
Cc1ccc2c(c1)C1=NCCN1C(/C=C(\O)c1cccnc1)=N2 [Example 1-131]	100 to 500 nM	212 °C
CC(=O)Nc1ccc(/C(O)=C/C2=Nc3ccccc3C3=NCCN23)cc1 [Example 1-133]	100 to 500 nM	> 300 °C
O/C(=C\C1=Nc2ccccc2C2=NCCN12)c1cccnc1 [Example 1-134]	100 to 500 nM	202 °C
Cc1ccc(/C(O)=C/C2=Nc3ccccc3C3=NCCN23)cn1 [Example 1-136]	100 to 500 nM	217 to 219 °C
CC(=O)Nc1ccc(/C(O)=C/C2=Nc3ccccc3C3=NCCN23)cn1.Cl [Example 1-138]	< 100 nM	327 °C
CNc1ccc(/C(O)=C/C2=Nc3ccccc3C3=NCCN23)cn1 [Example 1-139]	< 100 nM	232 to 237 °C
CCCNc1ccc(/C(O)=C/C2=Nc3ccccc3C3=NCCN23)cn1 [Example 1-140]	100 to 500 nM	197 °C
O/C(=C\C1=Nc2ccccc2C2=NCCN12)c1cnccn1 [Example 1-141]	100 to 500 nM	233 to 235 °C
O/C(=C\C1=Nc2ccccc2C2=NCCN12)c1ccco1 [Example 1-143]	100 to 500 nM	192 °C
O/C(=C\C1=Nc2ccccc2C2=NCCN12)c1ccoc1 [Example 1-145]	100 to 500 nM	155 to 156 °C
O/C(=C\C1=Nc2ccccc2C2=NCCN12)c1cccs1 [Example 1-146]	< 100 nM	193 °C
O/C(=C\C1=Nc2ccccc2C2=NCCN12)c1ccsc1 [Example 1-148]	100 to 500 nM	182 to 183 °C
Cl.O/C(=C\C1=Nc2ccccc2C2=NCCN12)c1ccsc1 [Example 1-149]	< 100 nM	> 300 °C
O/C(=C\C1=Nc2ccccc2C2=NCCN12)c1ccc[nH]1 [Example 1-150]	100 to 500 nM	247 °C
O/C(=C\C1=Nc2ccccc2C2=NCCN12)c1cc[nH]c1 [Example 1-151]	< 100 nM	247 to 249 °C
O/C(=C\C1=Nc2ccccc2C2=NCCN12)c1ccno1 [Example 1-152]	100 to 500 nM	148 °C
O/C(=C\C1=Nc2ccccc2C2=NCCN12)c1nccs1 [Example 1-154]	< 100 nM	208 to 210 °C
Cl.O/C(=C\C1=Nc2ccccc2C2=NCCN12)c1nccs1 [Example 1-155]	100 to 500 nM	> 300 °C
Cc1nc(C)c(/C(O)=C/C2=Nc3ccccc3C3=NCCN23)s1 [Example 1-156]	< 100 nM	222 °C

Compound	IC50 [1]	melting point
Cl.O/C(=C\C1=Nc2ccccc2C2=NCCN12)c1ccc2[nH]cnc2c1 [Example 1-157]	100 to 500 nM	> 300 °C
O/C(=C\C1=Nc2ccccc2C2=NCCN12)C(Cl)(Cl)Cl [Example 1-158]	100 to 500 nM	190 °C (dec.)
O/C(=C\C1=Nc2ncccc2C2=NCCN12)c1ccc2[nH]cnc2c1 [Example 1-159]	< 100 nM	> 300 °C
Cl.O/C(=C\C1=Nc2ncccc2C2=NCCN12)c1ccc2[nH]cnc2c1 [Example 1-160]	100 to 500 nM	247 °C (dec.)
CC(=O)Nc1ccc(/C(O)=C/C2=Nc3nc(C)ccc3C3=NCCN23)cn1 [Example 1-161]	100 to 500 nM	> 300 °C
CC(C)(C)OC(=O)CCc1ccc2c(n1)N=C(/C=C(\O)c1cccnc1)N1CCN=C21 [Example 1-163]	100 to 500 nM	200 °C
O/C(=C\C1=Nc2cnccc2C2=NCCN12)c1cccnc1 [Example 1-164]	100 to 500 nM	230 °C
O/C(=C\C1=Nc2ccncc2C2=NCCN12)c1cccnc1 [Example 1-165]	100 to 500 nM	250 °C
O/C(=C\C1=Nc2ccccc2C2=NCCN12)c1ccccc1 [Example 1-166]	500 to 2000 nM	130 to 139 °C
O=[N+]([O-])c1cccc(/C(O)=C/C2=Nc3ccccc3C3=NCCN23)c1 [Example 1-167]	> 2000 nM	276 °C
O=[N+]([O-])c1ccc(/C(O)=C/C2=Nc3ccccc3C3=NCCN23)cc1 [Example 1-168]	> 2000 nM	240 to 248 °C
COc1ccc(/C(O)=C/C2=Nc3ccccc3C3=NCCN23)cc1 [Example 1-169]	> 2000 nM	212 to 214 °C
O/C(=C\C1=Nc2ccccc2C2=NCCN12)c1ccccc1O [Example 1-170]	> 2000 nM	252 to 256 °C
O/C(=C\C1=Nc2ccccc2C2=NCCN12)c1cccc(Cl)c1 [Example 1-171]	> 2000 nM	224 to 227 °C
N#Cc1ccc(/C(O)=C/C2=Nc3ccccc3C3=NCCN23)cc1 [Example 1-172]	> 2000 nM	260 to 264 °C
O/C(=C\C1=Nc2ccccc2C2=NCCN12)c1ccccn1 [Example 1-173]	500 to 2000 nM	195 °C
O/C(=C\C1=Nc2ccccc2C2=NCCN12)c1ccncc1 [Example 1-175]	100 to 500 nM	204 to 205 °C
N#Cc1ccc(/C(O)=C/C2=Nc3ccccc3C3=NCCN23)s1 [Example 1-177]	500 to 2000 nM	256 °C
O=[N+]([O-])c1cc(/C(O)=C/C2=Nc3ccccc3C3=NCCN23)cs1 [Example 1-178]	> 2000 nM	255 to 258 °C
Cc1nc(NC(=O)OC(C)(C)C)sc1/C(O)=C/C1=Nc2ccccc2C2=NCCN12 [Example 1-179]	> 2000 nM	> 300 °C
O/C(=C\C1=Nc2ccccc2C2=NCCN12)c1csc2ccccc12 [Example 1-180]	> 2000 nM	220 to 225 °C
CCC/C(O)=C/C1=Nc2ccccc2C2=NCCN12 [Example 1-182]	> 2000 nM	113 °C
CC(C)(C)/C(O)=C/C1=Nc2ccccc2C2=NCCN12 [Example 1-183]	500 to 2000 nM	134 to 138 °C
O/C(=C\C1=Nc2ccccc2C2=NCCN12)C(F)(F)F [Example 1-184]	500 to 2000 nM	240 °C
COc1cc2c(cc1OC)C1=NCCN1C(/C=C(\O)c1ccccc1)=N2 [Example 1-185]	500 to 2000 nM	249 to 252 °C

From patent publication US7511041B2, “Fused azole-pyrimidine derivatives” (Bayer Pharmaceuticals Corporation, priority 2002, dated 2009)
